# Source: publication PMC7961786, “Magic Peptide: Unique Properties of the LRR11 Peptide in the Activation of Leukotriene Synthesis in Human Neutrophils” (International Journal of Molecular Sciences, 2021)
# Oligonucleotides are written 5' to 3', each unit as a sugar letter and its base; * is a phosphorothioate linkage, no mark a phosphodiester; rarer units and linkages stand in square brackets, end groups in braces. Plain capitals give the bases only. d = 2'-deoxy (DNA)
# Experiments:
# [1] = system: human neutrophils (PMNLs), 5-LOX product synthesis; assay: 5-LOX metabolite synthesis in human neutrophils stimulated with opsonized S. typhimurium (HPLC); type: cell-based
# Procedure: Figure 1 Effects of LRR11 and ODNs on the formation of LTB4 (A,B) and the sum of 5-LOX metabolites (ω-OH-LTB4, LTB4 and its isomers, and 5-HETE) (C) in human PMNLs. PMNLs (2 × 10^7) were incubated for 15 min at 37 °C without (black bars) or with 1 μM LRR11 (A, LRR11_first); then ODNs and LRR11 or LPS were added; various ways of adding ODN and LRR11 peptide are indicated. In control samples, Hanks’ solution was added instead of ODNs. After 20 min, 0.5 × 10^9 S. typhimurium bacterial cells were added for a further 15 min. The 5-LOX products were determined using HPLC. Values indicate mean ± SEM of five independent experiments performed in duplicate. * p < 0.05, ** p < 0.01, *** p < 0.005, compared with the control. # p < 0.05, ## p < 0.01 for pairs of data compared as indicated by two-way ANOVA followed by Tukey’s multiple comparison test.
# Figure 3 Synthesis of the 5-LOX metabolites in PMNLs exposed to opsonized S. typhimurium bacteria in the presence of the RAGE antagonist FPS-ZM1. PMNLs (2 × 10^7) were incubated for 15 min at 37 °C without additives or with 0.15 µM FPS-ZM1, for the next 20 min the mixture was incubated with 1 µM ODNs without (black bars) or with 1 µM LRR11 (gray bars) before adding 5 × 10^8 S. typhimurium for 15 min. In control samples, Hanks’ solution was added instead of ODNs. The 5-LOX products were determined using HPLC. Graphical data are presented for LTB4 (A) or the sum of LTB4 and its isomers, ω-OH-LTB4 and 5-HETE, designed as Σ5LOX products (B).
# Human neutrophils were isolated from freshly taken citrate-anticoagulated peripheral blood from healthy individuals using standard methods. Leukocyte-rich plasma was prepared by sedimentation of erythrocytes with 3% dextran T-500 at room temperature. For purification of granulocytes, centrifugation through Ficoll-Paque (density 1.077 g/mL) was used, followed by hypotonic lysis of the remaining erythrocytes. […] All methods were performed in accordance with the relevant instructions and regulations of the Ministry of Health of the Russian Federation and local legislation.
# Bacteria (S. typhimurium IE 147 strain) obtained from the Collection of Gamaleya National Research Center of Epidemiology and Microbiology (Moscow, Russia) were grown in Luria–Bertani broth to a concentration of 1 × 10^9 colony-forming units (CFU)/mL. The bacteria were collected by centrifugation at 2000 g and opsonized immediately before the experiment for 30 min in 20% (v/v) fresh serum from the same donor whose blood was used to isolate neutrophils. Repeated centrifugation in Dulbecco’s solution was used to wash the bacteria.
# The cell suspension (2 × 10^7 PMNLs in HBSS/HEPES, reaction volume of 6 mL) was cultured for 15 min in an incubator at 37 °C, 5% CO2. Then 1.0 µM ODN with or without 1.0 µM LRR11, or 2 µg/mL LPS, was added as indicated. After 20 min, the cells were stimulated with S. typhimurium (the ratio of bacteria to PMNLs was approximately 20:1) for the next 15 min [3]. The synthesis of 5-LOX metabolites was stopped by adding an equal volume of methanol at −20 °C with prostaglandin B2 as an internal standard. Samples were stored at −20 °C. The denatured cell suspension was centrifuged, and supernatants designated as water/methanol extracts.
# (§1) To purify the water/methanol extracts, solid-phase extraction was used on Sep-Pak C18 cartridges (500 mg; Macherey-Nagel, Dueren, Germany), which were conditioned first with methanol, and then with water. Major 5-LOX metabolites were identified by comparing retention times with those of known compounds, as previously described.
# Table S1. Effect of Chloroquine on 5-LOX product formation in PMNLs after ODN priming followed by the addition
# of opsonized S. typhimurium bacteria.
# [2] = system: PMNLs, 5-LOX product formation; assay: 5-LOX product formation in PMNLs stimulated by calcium ionophore A23187; type: cell-based, human
# Procedure: Human neutrophils were isolated from freshly taken citrate-anticoagulated peripheral blood from healthy individuals using standard methods. Leukocyte-rich plasma was prepared by sedimentation of erythrocytes with 3% dextran T-500 at room temperature. For purification of granulocytes, centrifugation through Ficoll-Paque (density 1.077 g/mL) was used, followed by hypotonic lysis of the remaining erythrocytes. PMNLs were washed twice in PBS, resuspended at 10^7 cells/mL (96–97% purity, 98–99% viability) in Dulbecco’s PBS containing 1 mg/mL glucose (no CaCl2) and stored at room temperature. All methods were performed in accordance with the relevant instructions and regulations of the Ministry of Health of the Russian Federation and local legislation.
# as §1
# [3] = system: human neutrophils (PMNLs); assay: Binding and uptake of FAM-labeled ODNs by neutrophils (flow cytometry); type: cell-based; settings: 0.15 µM FPS-ZM1, 15 min, then 1 µM FAM-ODN 20 min; n = 3; Figure 7
# Procedure: Figure 6 The LRR11 peptide affects the binding and uptake of ODNs by neutrophilic granulocytes. PMNLs (1 × 10^6/mL) in HBSS/HEPES were incubated for 20 min at 37 °C in 5% CO2 with 1 µM FAM-labeled ODN, supplemented or not with 1 µM LRR11 peptide. Both the total ODN accumulation (red) and its intracellular constituent (black) were analyzed by flow cytometry. Surface fluorescence was quenched by trypan blue (TB) solution. Values represent the means ± SEM of FAM fluorescence intensities (RFU, relative fluorescence units) (n = 8). ** p < 0.01; *** p < 0.005, **** p < 0.001 for specified data pairs, as indicated by two-way ANOVA followed by Tukey’s multiple comparison test. Mean fluorescence intensities of unstained PMNLs were 62 ± 12 and 39 ± 5.6 without or after TB quenching, respectively.
# Figure 7 RAGE antagonist effect on oligonucleotide penetration into neutrophil cells. […] Both total oligonucleotide accumulation (A) and its intracellular constituent (B) were analyzed by flow cytometry. The surface fluorescence was quenched by trypan blue solution. Values represent the means ± SEM of FAM fluorescence intensities (RFU) (n = 3). * p < 0.05; […]; *** p < 0.005 for the pair of data specified, as indicated by two-way ANOVA followed by Tukey’s multiple comparison test. Fluorescence intensities of unstained controls were 62 ± 14 and 49 ± 6 without, or after TB quenching, respectively. […]
# PMNLs = assay: Phagocytosis of FITC-labeled S. typhimurium by neutrophils; type: cell-based, human; settings: 1 µM ODN +/- 1 µM LRR11, FITC-labeled S. typhimurium 20 min; n = 3; Figure S2b
# Procedure: Figure S2b. Influence of LRR11 and ODNs on phagocytic activity of neutrophils. PMNLs supplemented with 1 µM ODN +/- 1 µM LRR11, except for control samples containing HBSS/HEPES instead of ODNs, were incubated for 20 min in Eppendorf tubes at 37 °C in 5% CO2 with continuous stirring. FITC-labeled S. typhimurium were then added for next 20 min, followed by FACS analysis (excitation: 488 nm, emission: 525 nm). Both the relative amounts of PMNLs involved in phagocytosis (A, B) and the fluorescence intensities, reflecting the average number of bacteria captured per cell (C, D), were estimated. To distinguish between internalized and surface-bound bacterial cells, trypan blue at a working concentration of 1 mg/ml, was used to quench the surface FITC fluorescence caused by the attached bacteria. Thus, each series of samples was duplicated to obtain results both without (A, C) and with (B, D) TB quenching, which corresponds to the total interaction and uptake of bacteria. Averaged flow cytometry data are presented, including means ± SEM for the percentages of FITC-positive (i.e., phagocytic) cells (A, B), and mean ± SEM for fluorescence intensities of FITC-positive subpopulations (C, D) (n=3; * p < 0.05; ** p < 0.01 in comparison with corresponding controls, ns – non significant, as indicated by two-way ANOVA followed by Dunnett’s or Tukey’s multiple comparison tests). […]
# [4] = system: human neutrophils (PMNLs), 5-LOX product synthesis; design: method as in PMID 27036535; settings: ref [3]; cited from earlier work
# TLR9 signaling = settings: ref [25]; cited from earlier work
# cells, CpG-ODN delivery = settings: ref [43],[44]; cited from earlier work
# Excerpt: (§2) LRR11, like LL-37, belongs to the group of cationic antimicrobial peptides, which are characterized by high content of hydrophobic residues (~40%) and overall positive charge due to the increased content of Arg and Lys residues. They block many functions of LPS [39, 40], interact with intracellular DNA, and mediate DNA uptake and transport in mammalian cells.
# [5] = system: telomeric G-quadruplex DNA; settings: ref [42]; cited from earlier work
# Excerpt: as §2
# [6] = system: vascular smooth muscle cells; settings: ref [56]; cited from earlier work
# Excerpt: RAGE is shown to bind molecules, known as damage-associated molecular patterns (DAMPs), released by cells that die or are under conditions of inflammation.
compound,measurement,setting,value
O=C(c1ccc(Cl)cc1)N(Cc1ccccc1)C1CCCCC1 [FPS-ZM1],effect of FPS-ZM1 on 5-LOX product formation stimulated by bacterial phagocytosis,"[1]; 0.15 µM FPS-ZM1, S. typhimurium, Figure 3",inhibited the 5-LOX product formation stimulated by bacterial phagocytosis
same,effect of FPS-ZM1 on ODN effects on leukotriene synthesis,"[1]; 150 nM FPS-ZM1, 15 min before 1 µM ODNs, Figure 3, four independent experiments",strongly reduce the effects of ODNs on leukotriene synthesis
same,Σ 5-LOX metabolites,"[2]; 150 nM FPS-ZM1 30 min at 37 °C, then 1 µM A23187 10 min, mean ± SEM, three independent experiments",438 ± 42 ng/10^7 PMNLs
same,effect of FPS-ZM1 on A23187-induced leukotriene synthesis,"[2]; 150 nM FPS-ZM1, 1 µM A23187",did not affect the leukotriene synthesis induced by the calcium ionophore A23187
same,effect of RAGE antagonist on ODN internalization,[3],suppressed ODN internalization
"5′-ggTTAGGGTTAGGGTTAGGGTTAGGGggggg-3′ (DNA dG*dG*dTdTdAdGdGdGdTdTdAdGdGdGdTdTdAdGdGdGdTdTdAdGdGdGdG*dG*dG*dG*dG) [G-rich ODN, G-rich ODN containing human telomeric tandem repeats]",effect on 5-LOX activity / leukotriene synthesis,"[1]; ODN alone, 1 µM, 20 min, then opsonized S. typhimurium 15 min, Figure 1, five independent experiments in duplicate",increased leukotriene synthesis
same,effect on bacteria engulfment,PMNLs,only G-rich ODN facilitated the bacteria engulfment
CCN(CC)CCCC(C)Nc1ccnc2cc(Cl)ccc12 (centres unmarked) [Chloroquine],effect of chloroquine on CpG-ODN action on 5-LOX products,"[1]; 5 µM Chloroquine, B- and C-class CpG-ODNs, Table S1",the effects of B- and C-class CpG-ODNs were not sensitive to chloroquine
same,Σ 5-LOX metabolites,"[1]; Table S1, 2×10^7 PMNLs, 15 min at 37 °C without or with 5 µM Chloroquine, then ODN, after 20 min 0.5×10^9 opsonized S. typhimurium for 15 min, mean ± SEM, three independent experiments",19.8 ± 2.7 ng/107 PMNLs
same,effect of chloroquine on inhibition of 5-LOX product formation by ODN 2216,[4],abrogated by chloroquine
same,inhibition of CpG-ODN–induced cell activation,TLR9 signaling,known to inhibit CpG-ODN–induced cell activation
LL-37,delivery of bacterial CpG-ODNs to cells,"cells, CpG-ODN delivery",promotes the rapid delivery of bacterial CpG-ODNs to cells
same,complex with telomeric G-quadruplex DNA,[5],forms a complex with telomeric G-quadruplex DNA
"CCCCC/C=C\C[C@@H](O)/C=C/C=C/C=C\[C@@H](O)CCCC(=O)O [LTB4, leukotriene B4, reference compound]",RAGE expression / LTB4 production in vascular smooth muscle cells,[6],increases RAGE expression in proliferating human vascular smooth muscle cells
